This is an account of results in article PMC8178125, “The acyl chains of phosphoinositide PIP3 alter the structure and function of nuclear receptor steroidogenic factor-1” (Journal of Lipid Research, 2021).

5Fam = 5-carboxyfluorescein label on the N-terminus

Experiment [1] addresses T1, human apo-SF-1 LBD (Homo sapiens, UniProt Q13285, C247S/C412S).
T1 construct: human SF-1 LBD comprising amino acids 218–461 of human SF-1; 6X-HIS (N, cleaved yes); TEV site (N, cleaved yes); made in house; host or cells: E. coli BL21 (DE3)
The experiment can be described thus: Native gel (electromobility) shift assay of equilibrium phosphoinositide binding to apo-SF-1 LBD. To be noted: for Kd: apo-SF-1 LBD 1 μM, 37°C 1 h, 1-site binding model, SEM, read-out: apparent Kd of phosphoinositide binding to SF-1 LBD. The method, then: Apparent Kd interaction data of phosphoinositides was determined on human apo-SF-1 LBD by a previously described native gel shift assay ([21]) to monitor equilibrium binding to each phosphoinositide. Briefly, apo-SF-1 ligand binding domain was generated using an on-column washout procedure to remove bound phospholipid, wherein pure SF-1 bound to dipalmitoyl PIP3 was loaded onto a Mono Q column and washed with 1.0 L of 20 mM Hepes (8.0), 1 mM EDTA with 2 mM CHAPS at 2 ml/min to remove all bound phospholipid from SF-1 by on-column dilution. The buffer was then changed into 20 mM Hepes (8.0), 1 mM EDTA to remove detergents, and apo-SF-1 eluted using a ammonium acetate gradient, pooled, protein concentration quantitated, and then used in the phosphoinositide binding assay. For the phosphoinositide binding assay, each phosphoinositide was resuspended in water, sonicated, diluted, and stored under nitrogen at 4°C. Phosphoinositides were always re-sonicated immediately before use in binding assays. Two microliters of serially diluted phosphoinositide were added to binding reactions of 25 μl total volume, containing 1 μM final concentration of apo-SF-1 LBD in 20 mM Hepes (8.0), 1 mM EDTA, and 10 mM ammonium acetate in 200 μl polypropylene PCR strip tubes. Binding reactions were incubated at 37°C for 1 h in a PCR thermocycler with a heated reaction cover, the reaction mixed with 3 μl native loading buffer (40% glycerol, 0.005% Ponceau S) and run on a 4% to 16% polyacrylamide Bis-Tris NativePage™ gel (Invitrogen). After fixation and silver staining (BioRad), gels were scanned, the phosphoinositide-shifted band quantitated using NIH image, and apparent Kd determined by nonlinear curve fit to a single-site binding model in GraphPad Prism. Data represent at least three independent replicates.

The target of the next experiment is T2, human SF-1 LBD (2CS) (Homo sapiens, UniProt Q13285, C247S/C412S).
T2 construct: human SF-1 LBD (218–461) 2CS “Cys-lite” mutant (C247S and C412S); 6X-HIS (N, cleaved yes); TEV site (N, cleaved yes); made in house; host or cells: E. coli BL21 (DE3); peptide purchased from New England Peptide
T2 sequence (Q13285 218-461 C247S/C412S): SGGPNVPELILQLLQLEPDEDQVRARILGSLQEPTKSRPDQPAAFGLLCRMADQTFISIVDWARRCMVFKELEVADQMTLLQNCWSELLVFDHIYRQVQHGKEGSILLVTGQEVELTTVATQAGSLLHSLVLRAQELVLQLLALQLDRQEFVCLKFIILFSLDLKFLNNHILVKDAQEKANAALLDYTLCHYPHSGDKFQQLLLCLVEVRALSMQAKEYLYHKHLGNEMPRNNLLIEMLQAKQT
The experiment can be described thus: Fluorescence polarization coactivator binding assay: 5Fam-labeled PGC1α peptide binding to lipid-complexed SF-1 LBD. To be noted: SF-1 bound to dioleoyl vs dipalmitoyl PIP3. The text has this: The same human SF-1 LBD (2CS) construct used for crystallization was complexed with dioleoyl PIP3 and subjected to anion exchange chromatography to separate PIP3-bound species from bacterial phospholipid-bound species. PIP3-bound SF-1 elutes during anion exchange chromatography at higher ionic strength than bacterial phospholipid-bound SF-1 because of the negatively charged phosphates on the PIP3 headgroup. The PIP3-bound and bacterial phospholipid–bound fractions were pooled and concentrated as above, then serially diluted into assay buffer (20 mM Hepes [7.5], 150 mM NaCl) in black-walled 384-well nonprotein binding plates, with 50 μM SF-1 LBD as the highest concentration and a constant 25 μL volume in each well. Reproducibility in the FP assay critically relies on using nonprotein binding plates. To each well, an equal volume of N-terminal 5Fam-labeled PGC1α co-activator peptide (5Fam-EEPSLLKKLLLAPA-OH) was added to a final concentration of 100 nM fluorescently labeled peptide (purchased from New England Peptide). After a 1-h incubation nutating at room temperature in the dark, fluorescence polarization was measured on the Biotek Neo Plate reader at the Vanderbilt High-throughput Screening Center. Data were fit to a standard one-site binding model in GraphPad Prism, and all data represent at least three independent replicates.
A general note: Polarisation of emitted light reports the rotation of a fluorescent probe.

The target in a further experiment is T3, SF-1 LBD (Homo sapiens, UniProt Q13285, C247S/C412S).
T3 construct: human SF-1 LBD comprising amino acids 218–461 of human SF-1; 6X-HIS (N, cleaved yes); TEV site (N, cleaved yes); made in house; host or cells: E. coli BL21 (DE3)
T3 sequence (Q13285 218-461 C247S/C412S): as above
Nature of the experiment: Limited trypsin proteolytic sensitivity assay of SF-1 LBD bound to PIP3. As to conditions: trypsin:SF-1 1:500 (w/w), 25°C, 60 min time course; compared with PIP3(16:0/16:0). The method, then: Protease selection for limited digestion was carried out by adding elastase, thermolysin, proteinase K, or trypsin to SF-1 LBD in a protease:SF-1 LBD ratio of 1:500 (w/w), followed by incubation at 30 or 60 min and 10% SDS-PAGE followed by Coomassie stain. For determination of SF-1 proteolysis bound by PIP3(16:0/16:0) or PIP3(18:1/18:1), equal amounts of the purified SF-1 LBD used for crystallization without coactivator peptide were incubated with PIP3(16:0/16:0) or PIP3(18:1/18:1) at a protein:PIP3 molar ratio of 1:10, overnight at room temperature, a procedure determined in previous publications to result in complete PIP3 binding to SF-1 LBD. Limited proteolysis analysis was carried out by adding trypsin (Sigma) to SF1-PIP3 in a trypsin:SF-1 ratio of 1:500 (w/w), followed by incubation at 25°C for a 60 min time course. […] Gels were scanned, and the band intensities quantified using Image J (NIH). […]
(also on this page, place not known: Time (min) Relative percentage protection 0.0002*** Supplemental Figure S1:SF-1 dioleoyl is dipalmitoyl PIP3(16:0/16:0). Coomassie-stained trypsin-digested PIP3 species, trypsin treated 60-minute time course, reactions boiled run gel. B.Relative quantitation expressed percentage signal from in lane, quantified using graph comparing either PIP3(16:0/16:0) indicated PIP3(18:1/18:1) indicated trypsin Sidak’smultiple n=3). […]

Experiment [2] has as its target T1, human apo-SF-1 LBD. More on the design: method as in PMID 25288771. To be noted: previous work; cited from earlier work.
Experiment [3] addresses T4, human SF-1 ligand binding domain (218–461) 2CS Cys-lite mutant (C247S and C412S) (human, UniProt Q13285 218-461, C247S | C412S).
T4 construct: also called SF-1 LBD; SF-1 LBD (2CS); not shown: His6, N-terminal, cleaved
The experiment can be described thus: fluorescence polarisation; SF-1 LBD bound to bacterial phospholipid serially diluted from 50 uM; 100 nM 5Fam-PGC1α peptide; 20 mM Hepes (7.5), 150 mM NaCl; 1 h at room temperature; one-site binding model; apparent Kd. To be noted: both partners purified.

For experiment [4], the target named is T5, human SF-1 LBD (218-461) 2CS Cys-lite mutant (C247S and C412S) (human, UniProt Q13285 218-461, C247S | C412S).
T5 construct: The His tag was removed with TEV; also called steroidogenic factor-1; NR5A1; source: complexed with dioleoyl PIP3, dipalmitoyl PIP3 or co-purifying bacterial phospholipid; not shown: His6, N-terminal, cleaved
T5 sequence (Q13285 218-461 C247S/C412S): as above
Nature of the experiment: fluorescence polarisation; SF-1 LBD complexed with dipalmitoyl PIP3(16:0/16:0); 100 nM 5Fam-labeled peptide; 20 mM Hepes (7.5), 150 mM NaCl; 1 h at room temperature; one-site binding model; apparent. To be noted: both partners purified.

In experiment [5] the target is T5, human SF-1 LBD (218-461) 2CS Cys-lite …. The experiment can be described thus: fluorescence polarisation; SF-1 LBD complexed with dioleoyl PIP3(18:1/18:1), serially diluted from 50 μM; 100 nM 5Fam-labeled peptide; 20 mM Hepes (7.5), 150 mM NaCl; 1 h at room temperature; one-site binding model. To be noted: both partners purified.
Experiment [6] shares this target. Nature of the experiment: crystal structure; SF-1 LBD complexed with dioleoyl PIP3(18:1/18:1), then with 3-fold molar excess of PGC1α peptide; sitting drop, 20% PEG 3350, 0.2 M magnesium formate, 20°C. To be noted: both partners purified.

T1 sequence (Q13285 218-461 C247S/C412S): as above
T4 sequence (Q13285 218-461 C247S/C412S): as above

Turning to `CCCCCCCC/C=C\CCCCCCCC(=O)OC[C@H](COP(=O)(O)OC1C(O)C(OP(=O)(O)O)C(OP(=O)(O)O)C(OP(=O)(O)O)C1O)OC(=O)CCCCCCC/C=C\CCCCCCCC` (stereo partly drawn) [dioleoyl PIP3, 1,2-di-(9Z-octadecenoyl)-sn-glycero-3-[phosphoinositol-3,4,5-trisphosphate]], on human apo-SF-1 LBD [1], the Kd was 71 ± 10 nM. On human apo-SF-1 LBD [1] (dioleoyl vs dipalmitoyl PIP3 binding to SF-1 LBD), the “fold lower apparent Kd than dipalmitoyl (16:0/16:0) PIP3” value is reported as 3 fold. In addition, the “fold poorer affinity of PGC1α coactivator peptide for SF-1 compared with dipalmitoyl PIP3” value at human SF-1 LBD (2CS) is 6 fold; on human SF-1 LBD (2CS) (listed as Dioleoyl PIP3(18:1/18:1)) it was at least 5 fold. Also, the “trypsin protease sensitivity of SF-1 bound to the lipid” value on SF-1 LBD is “increased trypsin protease sensitivity”.

For `CCCCCCCCCCCCCCCC(=O)OCC(COP(=O)(O)OC1C(O)C(O)C(OP(=O)(O)O)C(OP(=O)(O)O)C1O)OC(=O)CCCCCCCCCCCCCCC` (stereo not drawn) [dipalmitoyl (16:0/16:0) PIP2], at human apo-SF-1 LBD [1], the Kd was 348 ± 42 nM.

For `CCCCCCCCCCCCCCCC(=O)OC[C@H](COP(=O)(O)OC1C(O)C(OP(=O)(O)O)C(OP(=O)(O)O)C(OP(=O)(O)O)C1O)OC(=O)CCCCCCCCCCCCCCC` (stereo partly drawn) [dipalmitoyl PIP3, 1,2-dipalmitoyl-sn-glycero-3-[phosphoinositol-3,4,5-triphophosate]], the Kd at human apo-SF-1 LBD [1] came to 130 ± 14 nM. The “affinity for SF-1” value at human apo-SF-1 LBD [2] is recorded as “nanomolar affinity”.

B1: N-terminal 5Fam-labeled PGC1α co-activator peptide (5Fam-EEPSLLKKLLLAPA-OH) (peptide)
peptide: 5Fam-EEPSLLKKLLLAPA-OH
notes: the validation report numbers the modelled residues P141-A152 (D2:p5); also called PGC1α peptide; fluorophore-labeled PGC1α peptide; source: synthetic peptide; bought: New England Peptide
For the molecule B1, in experiment [3], the Kd was determined as 6.8 ± 2 µM.

B2: N-terminal 5Fam-labeled PGC1α co-activator peptide (5Fam-EEPSLLKKLLLAPA-OH) (peptide)
peptide: 5Fam-EEPSLLKKLLLAPA-OH
notes: also called fluorophore-labeled PGC1α peptide; fluorescently labeled peptide; source: synthetic peptide, bought: New England Peptide
On to B2, for which the Kd was 7.7 ± 1.4 µM in experiment [4] and above 42 µM in experiment [5].

B3: synthetic peptide representing the human PGC1α co-activator (H3N-EEPSLLKKLLLAPA-OH) (peptide)
peptide: H-EEPSLLKKLLLAPA-OH
notes: Unlabelled peptide used for co-crystallisation, free N- and C-termini as printed; also called PGC1α peptide; source: synthetic peptide, bought: New England Peptide
For the molecule B3, in experiment [6], the binding result was “binds”.
